Reference: patent US20250312258A1, “2,3-PYRROLIDINEDIONE CONJUGATES AND METHODS OF USING THEREOF” (North Carolina State University, priority 2022, published 2025)
Values after ≈ are worked out from the molar mass of the structure shown. Where two headings read alike, the source gives them in different places.

Legend:
[1] = test system: S. aureus 25923; test: Broth microdilution MIC, S. aureus 25923; assay type: cell-based, Staphylococcus aureus; details: Staphylococcus aureus, 25923, read-out: MIC (S. aureus 25923)
[2] = test system: S. aureus 29213; test: Broth microdilution MIC, S. aureus 29213; assay type: cell-based, Staphylococcus aureus
[3] = test system: MRSA 33591; test: Broth microdilution MIC, MRSA 33591; assay type: cell-based; details: Staphylococcus aureus, read-out: MIC (MRSA 33591)
[4] = test system: VRSA; test: MIC against VRSA (Table 2); assay type: cell-based; details: Staphylococcus aureus, read-out: MIC (VRSA)
[5] = test system: vanA VRE 700221; test: MIC against vanA VRE 700221; assay type: cell-based, Enterococcus spp.; details: Enterococcus, VRE
[6] = test system: VSE 2127; test: MIC against VSE 2127; assay type: cell-based, Enterococcus spp.; details: Enterococcus, read-out: MIC (VSE 2127)
[7] = test system: VRSA; test: MIC against VRSA strain panel (VRS/NRS strains); assay type: cell-based; details: Staphylococcus aureus
[8] = test system: VRE; test: MIC / in vitro activity against VRE strain panel; assay type: cell-based, Enterococcus spp.
[9] = test system: MRSA; test: MIC against MRSA strain panel; assay type: cell-based; details: Staphylococcus aureus, the 4th table
[10] = test system: MSSA; test: MIC against MSSA strain panel; assay type: cell-based; details: Staphylococcus aureus, the 4th table

SMILES: CN[C@H](CC(C)C)C(=O)N[C@H]1C(=O)N[C@@H](CC(N)=O)C(=O)N[C@H]2C(=O)N[C@H]3C(=O)N[C@H](C(=O)N[C@H](C(=O)O)c4cc(O)cc(O)c4-c4cc3ccc4O)[C@H](O)c3ccc(c(Cl)c3)Oc3cc2cc(c3O[C@@H]2O[C@H](CO)[C@@H](O)[C@H](O)[C@H]2O[C@H]2C[C@](C)(N)[C@H](O)[C@H](C)O2)Oc2ccc(cc2Cl)[C@H]1O [Vancomycin, vancomycin, reference compound]
- MIC [1]: 2 µg/mL (≈ 1.38 µM)
- MIC ([2]; Staphylococcus aureus, 29213, read-out: MIC (S. aureus 29213)): 1 µg/mL (≈ 0.69 µM)
- MIC ([2]; Staphylococcus aureus, ATCC 29213 / MRSA): 0.5 µg/mL (≈ 0.345 µM)
- MIC [3]: 2 µg/mL (≈ 1.38 µM)
- MIC [4]: 64 µg/mL (≈ 44.2 µM)
- MIC [5]: 512 µg/mL (≈ 353 µM)
- MIC ([5]; read-out: MIC (vanA VRE 700221)): 512 µg/mL (≈ 353 µM)
- MIC [6]: 2 µg/mL (≈ 1.38 µM)
- MIC ([7]; NRS 1 / VRSA, NRS-1 (VRSA), the 3rd table): 8 µg/mL (≈ 5.52 µM)
- MIC ([7]; NRS 1 / VRSA, NRS-1 VRSA, the 5th table): 8 µg/mL (≈ 5.52 µM)
- MIC ([7]; NRS 2 / VRSA, NRS-2 VRSA, the 5th table): 1 µg/mL (≈ 0.69 µM)
- MIC ([7]; VRSA, VRS-1 (VRSA), the 3rd table): > 64 µg/mL
- MIC ([7]; VRSA, VRS-1 VRSA, the 5th table): > 64 µg/mL
- MIC ([7]; VRSA, VRS-2 (VRSA), the 3rd table): 32 µg/mL (≈ 22.1 µM)
- MIC ([7]; VRSA, VRS-2 VRSA, the 5th table): 32 µg/mL (≈ 22.1 µM)
- MIC ([7]; VRSA, VRS-3a VRSA, the 5th table): 32 µg/mL (≈ 22.1 µM)
- MIC ([7]; VRSA, VRS-3b VRSA, the 5th table): > 64 µg/mL
- MIC ([7]; VRSA, VRS-4 (VRSA), the 3rd table): 32 µg/mL (≈ 22.1 µM)
- MIC ([7]; VRSA, VRS-4 VRSA, the 5th table): > 64 µg/mL
- MIC ([7]; VRSA, VRS-5 VRSA, the 5th table): > 64 µg/mL
- MIC ([7]; VRSA, VRS-6 VRSA, the 5th table): > 64 µg/mL
- MIC ([7]; VRSA, VRS-7 VRSA, the 5th table): > 64 µg/mL
- MIC ([7]; VRSA, VRS-8 VRSA, the 5th table): > 64 µg/mL
- MIC ([7]; VRSA, VRS-9 VRSA, the 5th table): > 64 µg/mL
- MIC ([7]; VRSA, VRS-10 VRSA, the 5th table): > 64 µg/mL
- MIC ([7]; VRSA, VRS-11a VRSA, the 5th table): > 64 µg/mL
- MIC ([7]; VRSA, VRS-11b VRSA, the 5th table): > 64 µg/mL
- MIC ([8]; 1593 (VRE), the 3rd table): >64 µg/mL
- MIC ([8]; 1593 VRE, the 4th table): >64 µg/mL
- MIC ([8]; 1751 (VRE), the 3rd table): >64 µg/mL
- MIC ([8]; 1751 VRE, the 6th table): >64 µg/mL
- MIC ([8]; 1772 VRE, the 6th table): >64 µg/mL
- MIC ([8]; 1946 VRE, the 6th table): >64 µg/mL
- MIC ([8]; 2059 VRE, the 6th table): >64 µg/mL
- MIC ([8]; 2431 VRE, the 6th table): >64 µg/mL
- MIC ([8]; 2574 VRE, the 6th table): >64 µg/mL
- MIC ([8]; 3053 VRE, the 6th table): >64 µg/mL
- MIC ([8]; 3183 (VRE), the 3rd table): >64 µg/mL
- MIC ([8]; 3183 VRE, the 6th table): >64 µg/mL
- MIC ([8]; 3190 VRE, the 6th table): >64 µg/mL
- MIC ([8]; 3191 VRE, the 6th table): >64 µg/mL
- MIC ([8]; 3222 (VRE, the 3rd table)): >64 µg/mL
- MIC ([8]; 3222 VRE, the 6th table): >64 µg/mL
- MIC ([8]; 3235 VRE, the 6th table): >64 µg/mL
- MIC ([8]; 3239 VRE, the 6th table): >64 µg/mL
- MIC ([8]; 3241 VRE, the 6th table): >64 µg/mL
- MIC ([8]; 3623 VRE, the 6th table): >64 µg/mL
- MIC ([8]; Enterococcus, VRE): > 64 µg/mL
- MIC ([9]; 6215 MRSA): 1 µg/mL (≈ 0.69 µM)
- MIC ([9]; 6217 MRSA): 1 µg/mL (≈ 0.69 µM)
- MIC ([9]; 6218 MRSA): 1 µg/mL (≈ 0.69 µM)
- MIC ([9]; 6220 MRSA): 0.5 µg/mL (≈ 0.345 µM)
- MIC ([9]; 6231 MRSA): 0.5 µg/mL (≈ 0.345 µM)
- MIC ([9]; AR-978 MRSA): 1 µg/mL (≈ 0.69 µM)
- MIC ([9]; AR-979 MRSA): 1 µg/mL (≈ 0.69 µM)
- MIC ([9]; AR-993 MRSA): 1 µg/mL (≈ 0.69 µM)
- MIC ([9]; AR-997 MRSA): 1 µg/mL (≈ 0.69 µM)
- MIC ([10]; VGP16-94 MSSA): 0.5 µg/mL (≈ 0.345 µM)
- MIC ([10]; VGP16-95 MSSA): 0.5 µg/mL (≈ 0.345 µM)
- MIC ([10]; VGP16-96 MSSA): 0.5 µg/mL (≈ 0.345 µM)
- MIC ([10]; VGP16-97 MSSA): 0.5 µg/mL (≈ 0.345 µM)
- MIC ([10]; VGP16-98 MSSA): 0.5 µg/mL (≈ 0.345 µM)
